Biological target: T1, PERK (Homo sapiens, UniProt Q9NZJ5)
T1 construct: GST-PERK (536-1116) cytoplasmic domain was purchased from Invitrogen; purchased Invitrogen PV5106
T1 sequence (Q9NZJ5 536-1116): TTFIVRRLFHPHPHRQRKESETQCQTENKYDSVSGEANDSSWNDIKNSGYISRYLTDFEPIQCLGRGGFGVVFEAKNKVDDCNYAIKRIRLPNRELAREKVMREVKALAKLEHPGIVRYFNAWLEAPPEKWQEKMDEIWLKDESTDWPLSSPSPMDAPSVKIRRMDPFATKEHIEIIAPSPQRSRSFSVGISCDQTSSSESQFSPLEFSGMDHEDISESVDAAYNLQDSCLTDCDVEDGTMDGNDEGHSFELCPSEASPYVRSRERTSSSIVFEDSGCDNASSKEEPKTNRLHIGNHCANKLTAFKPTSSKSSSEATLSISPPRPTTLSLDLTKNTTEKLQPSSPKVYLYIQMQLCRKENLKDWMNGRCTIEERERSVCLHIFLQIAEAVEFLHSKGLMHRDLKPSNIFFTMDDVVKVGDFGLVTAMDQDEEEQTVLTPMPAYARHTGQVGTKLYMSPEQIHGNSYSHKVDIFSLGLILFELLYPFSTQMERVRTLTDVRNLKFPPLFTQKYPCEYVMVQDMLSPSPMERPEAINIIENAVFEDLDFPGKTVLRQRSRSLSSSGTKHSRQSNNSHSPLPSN
Assay: PKR-like Endoplasmic Reticulum Kinase (PERK) Assay (HTRF Format)
Format: biochemical
Conditions: average, in at least one set of experimental runs; read-out: average pIC50 value against PERK (converted)
Description: PKR-like Endoplasmic Reticulum Kinase (PERK) Assay (HTRF Format)
Source of substrate: elF2α: 6-His-Full-length human elF2α is purified from baculovirus expression in Sf9 insect cells. The elF2 protein is buffer exchanged by dialysis into PBS, chemically modified by NHS-LC-Biotin and then buffer exchanged by dialysis into 50 mm TRIS pH 7.2/250 mM NaCl/5 mM DTT. Protein is aliquoted and stored at −80° C.
Assays were performed by adding GST-PERK solution to assay plates containing compounds and pre-incubated for 30 minutes at room temperature. The reaction is initiated by the addition of ATP and EIF2α substrate solution. Quench solution is added following a one hour incubation at room temperature. The plates are covered for 2 hours at room temperature prior to determination of signal. The resulting signal is quantified on a Viewlux Reader (PerkinElmer). The APC Signal is normalized to the Europium signal by transforming the data through an APC/Eu calculation.
Compounds under analysis were dissolved in DMSO to 1.0 mM and serially diluted 1 to 3 with DMSO through eleven dilutions. 0.1 μl of each concentration was transferred to the corresponding well of an assay plate. This creates a final compound concentration range from 0.00017 to 10 μM.
The data for concentration response curves were plotted as % Inhibition calculated with the data reduction formula 100*(1−(U1−C2)/(C1−C2)) versus concentration of compound where U is the unknown value, C1 is the average control value obtained for 1% DMSO, and C2 is the average control value obtained for 0.1 M EDTA. Data were fitted with a curve described by:
where A is the minimum y, B is the maximum y concentration [M], D is the slope factor, and x is the log10 of the compound.
In the above data, pIC50 is defined as −log(IC50) where the IC50 value is expressed in molar units.

IC50 | Compound
≤ 2.51 nM | Cn1cc(-c2ccc3c(c2)CCN3C(=O)Cc2ccccc2)c2c(N)ncnc21 [Example 4, 7-methyl-5-[1-(phenylacetyl)-2,3-dihydro-1H-indol-5-yl]-7H-pyrrolo[2,3-d]pyrimidin-4-amine]
≤ 1 nM | Cc1cccc(CC(=O)N2CCc3cc(-c4nn(C)c5ncnc(N)c45)ccc32)c1 [Example 18, 1-methyl-3-(1[(3-methylphenyl)acetyl]-2,3-dihydro-1H-indol-5-yl)-1H-pyrazolo[3,4-d]pyrimidin-4-amine]
≤ 2.51 nM | Nc1nccc2scc(-c3ccc4c(c3)CCN4C(=O)Cc3cccc(Cl)c3)c12 [Example 22, 3-{1-[(3-chlorophenyl)acetyl]-2,3-dihydro-1H-indol-5-yl}thieno[3,2-c]pyridin-4-amine]
≤ 2.51 nM | COc1cccc(CC(=O)N2CCc3cc(-c4csc5ccnc(N)c45)ccc32)c1 [Example 23, 3-(1-{[3-(methyloxy)phenyl]acetyl}-2,3-dihydro-1H-indol-5-yl)thieno[3,2-c]pyridin-4-amine]
≤ 0.316 nM | Cc1ccc(C)c(CC(=O)N2CCc3cc(-c4nn(C)c5ncnc(N)c45)ccc32)c1 [Example 28, 3-{1-[(2,5-dimethylphenyl)acetyl]-2,3-dihydro-1H-indol-5-yl}-1-methyl-1H-pyrazolo[3,4-d]pyrimidin-4-amine]
≤ 0.316 nM | Cc1cc(F)cc(CC(=O)N2CCc3cc(-c4nn(C)c5ncnc(N)c45)ccc32)c1 [Example 29, 3-{1-[(3-fluoro-5-methylphenyl)acetyl]-2,3-dihydro-1H-indol-5-yl}-1-methyl-1H-pyrazolo[3,4-d]pyrimidin-4-amine]
≤ 1 nM | Cc1cc(C)cc(CC(=O)N2CCc3cc(-c4nn(C)c5ncnc(N)c45)ccc32)c1 [Example 30, 3-{1-[(3,5-dimethylphenyl)acetyl]-2,3-dihydro-1H-indol-5-yl}-1-methyl-1H-pyrazolo[3,4-d]pyrimidin-4-amine]
≤ 2.51 nM | Cn1nc(-c2ccc3c(c2)CCN3C(=O)Cc2cccc(Cl)c2)c2c(N)ncnc21 [Example 42, 3-{1-[(3-chlorophenyl)acetyl]-2,3-dihydro-1H-indol-5-yl}-1-methyl-1H-pyrazolo[3,4-d]pyrimidin-4-amine]
≤ 0.316 nM | Cc1cc(F)cc(CC(=O)N2CCc3cc(-c4cn(C)c5ncnc(N)c45)ccc32)c1 [Example 45, 5-{1-[(3-fluoro-5-methylphenyl)acetyl]-2,3-dihydro-1H-indol-5-yl}-7-methyl-7H-pyrrolo[2,3-d]pyrimidin-4-amine]
≤ 0.316 nM | Cn1cc(-c2ccc3c(c2)CCN3C(=O)Cc2cc(F)cc(Cl)c2)c2c(N)ncnc21 [Example 53, 5-{1-[(3-chloro-5-fluorophenyl)acetyl]-2,3-dihydro-1H-indol-5-yl}-7-methyl-7H-pyrrolo[2,3-d]pyrimidin-4-amine]
≤ 2.51 nM | Cn1nc(-c2ccc3c(c2)CCN3C(=O)Cc2cc(F)cc(F)c2F)c2c(N)ncnc21 [Example 55, 1-methyl-3-{1-[(2,3,5-trifluorophenyl)acetyl]-2,3-dihydro-1H-indol-5-yl}-1H-pyrazolo[3,4-d]pyrimidin-4-amine]
≤ 1 nM | Cc1cccc(CC(=O)N2CCc3cc(-c4cn(C5CCNCC5)c5ncnc(N)c45)ccc32)c1 [Example 62, 5-{1-[(3-methylphenyl)acetyl]-2,3-dihydro-1H-indol-5-yl}-7-(4-piperidinyl)-7H-pyrrolo[2,3-d]pyrimidin-4-amine]
≤ 1 nM | Cc1cccc(CC(=O)N2CCc3cc(-c4csc5ncnc(N)c45)ccc32)c1 [Example 64, 5-{1-[(3-methylphenyl)acetyl]-2,3-dihydro-1H-indol-5-yl}thieno[2,3-d]pyrimidin-4-amine]
≤ 0.316 nM | Cc1cccc(CC(=O)N2CCc3cc(-c4cn(C)c5ncnc(N)c45)ccc32)c1F [Example 71, 5-{1-[(2-fluoro-3-methylphenyl)acetyl]-2,3-dihydro-1H-indol-5-yl}-7-methyl-7H-pyrrolo[2,3-d]pyrimidin-4-amine]
≤ 1 nM | Cc1ccc(F)c(CC(=O)N2CCc3cc(-c4cn(C)c5ncnc(N)c45)ccc32)c1 [Example 73, 5-{1-[(2-fluoro-5-methylphenyl)acetyl]-2,3-dihydro-1H-indol-5-yl}-7-methyl-7H-pyrrolo[2,3-d]pyrimidin-4-amine]
≤ 1 nM | Cc1cccc(CC(=O)N2CCc3cc(-c4nn(C)c5ncnc(N)c45)ccc32)c1F [Example 74, 3-{1-[(2-fluoro-3-methylphenyl)acetyl]-2,3-dihydro-1H-indol-5-yl}-1-methyl-1H-pyrazolo[3,4-d]pyrimidin-4-amine]
≤ 1 nM | Cc1cccc(CC(=O)N2CCc3cc(-c4cn(C)c5ncnc(N)c45)ccc32)c1C [Example 81, 5-{1-[(2,3-dimethylphenyl)acetyl]-2,3-dihydro-1H-indol-5-yl}-7-methyl-7H-pyrrolo[2,3-d]pyrimidin-4-amine]

Compound | IC50
Nc1nccc2scc(-c3ccc4c(c3)CCN4C(=O)Cc3cc(F)ccc3F)c12 [Example 6, 3-{1-[(2,5-difluorophenyl)acetyl]-2,3-dihydro-1H-indol-5-yl}thieno[3,2-c]pyridin-4-amine] | ≤ 2.51 nM
Nc1ncc(-c2ccncc2)c2scc(-c3ccc4c(c3)CCN4C(=O)Cc3ccccc3)c12 [Example 9, 3-[1-(phenylacetyl)-2,3-dihydro-1H-indol-5-yl]-7-(4-pyridinyl)thieno[3,2-c]pyridin-4-amine] | ≤ 1 nM
Nc1ncc(-c2cn[nH]c2)c2scc(-c3ccc4c(c3)CCN4C(=O)Cc3ccccc3)c12 [Example 13, 3-[1-(phenylacetyl)-2,3-dihydro-1H-indol-5-yl]-7-(1H-pyrazol-4-yl)thieno[3,2-c]pyridin-4-amine] | ≤ 1 nM
Cn1cc(-c2cnc(N)c3c(-c4ccc5c(c4)CCN5C(=O)Cc4ccccc4)csc23)cn1 [Example 14, 7-(1-methyl-1H-pyrazol-4-yl)-3-[1-(phenylacetyl)-2,3-dihydro-1H-indol-5-yl]thieno[3,2-c]pyridin-4-amine] | ≤ 2.51 nM
Nc1ncc(C2=CCNCC2)c2scc(-c3ccc4c(c3)CCN4C(=O)Cc3ccccc3)c12 [Example 19, 3-[1-(phenylacetyl)-2,3-dihydro-1H-indol-5-yl]-7-(1,2,3,6-tetrahydro-4-pyridinyl)thieno[3,2-c]pyridin-4-amine] | ≤ 2.51 nM
Nc1ncnc2scc(-c3ccc4c(c3)CCN4C(=O)Cc3cc(F)ccc3F)c12 [Example 31, 5-{1-[(2,5-difluorophenyl)acetyl]-2,3-dihydro-1H-indol-5-yl}thieno[2,3-d]pyrimidin-4-amine] | ≤ 1 nM
Cc1ccccc1CC(=O)N1CCc2cc(-c3cn(C)c4ncnc(N)c34)ccc21 [Example 33, 7-methyl-5-{1-[(2-methylphenyl)acetyl]-2,3-dihydro-1H-indol-5-yl}-7H-pyrrolo[2,3-d]pyrimidin-4-amine] | ≤ 0.316 nM
Cn1cc(-c2ccc3c(c2)CCN3C(=O)Cc2ccccc2F)c2c(N)ncnc21 [Example 34, 5-{1-[(2-fluorophenyl)acetyl]-2,3-dihydro-1H-indol-5-yl}-7-methyl-7H-pyrrolo[2,3-d]pyrimidin-4-amine] | ≤ 0.316 nM
Cc1cccc(CC(=O)N2CCc3cc(-c4cn(C)c5ncnc(N)c45)ccc32)c1 [Example 37, 7-methyl-5-{1-[(3-methylphenyl)acetyl]-2,3-dihydro-1H-indol-5-yl}-7H-pyrrolo[2,3-d]pyrimidin-4-amine] | ≤ 0.316 nM
Cn1cc(-c2ccc3c(c2)CCN3C(=O)Cc2cccc(Cl)c2)c2c(N)ncnc21 [Example 46, 5-{1-[(3-chlorophenyl)acetyl]-2,3-dihydro-1H-indol-5-yl}-7-methyl-7H-pyrrolo[2,3-d]pyrimidin-4-amine] | ≤ 0.316 nM
Cn1cc(-c2ccc3c(c2)CCN3C(=O)Cc2cc(F)ccc2F)c2c(N)ncnc21 [Example 59, 5-{1-[(2,5-difluorophenyl)acetyl]-2,3-dihydro-1H-indol-5-yl}-7-methyl-7H-pyrrolo[2,3-d]pyrimidin-4-amine] | ≤ 1 nM

— patent US20120077828A1, “CHEMICAL COMPOUNDS” (priority 2010, published 2012)
